Results as given in patent US11219209B2, “Method of reducing crop damage” (Bayer Aktiengesellschaft, priority 2018, dated 2022).

Assays:
Format in all cases: in vivo
winter wheat, TRZAW [1] = assay: Method A: safener seed treatment, herbicide post-emergence, greenhouse crop damage test; details: safener seed treatment 0.5 g/kg only, no herbicide
Description: (§1) For the safener seed treatment, sufficient seeds were weighed into screw top glass bottles approximately twice the volume of the seeds.
(§2) The safener (mefenpyr-diethyl, formulated as suspension concentrate (SC)) was weighed out so that the required rates (g a.i./kg seed) would be obtained, dissolved in water (1 ml water per 10 g of seeds), and added to the seeds to produce a slurry.
(§3) The bottles were capped and then placed in an overhead shaker (set at medium speed for up to 1 hour) so that the seeds were evenly coated with the slurry. The bottles were uncapped and the seeds were sown as described above.
(§4) For the seed treatment process, the blind formulation (the SC formulation without the safener mefenpyr-diethyl) was used as seed treatment as described above.
Post-emergence application of the herbicide was done when the plants had reached growth stage BBCH11.
(§5) After application, the test plants were kept in the greenhouse under good growth conditions.
(§6) Values in the table below are mean values from at least 3 replicates.

winter wheat, TRZAW [2] = assay: Method C: safener seed treatment, herbicide and safener tank mix post-emergence, greenhouse crop damage test; details: no herbicide
Description: as §1, §2, §3, §4
Post-emergence application was done when the plants had reached growth stage BBCH11.
The safener (mefenpyr-diethyl) was formulated as wettable powder (WP).
The compounds were sprayed onto the green parts of the plants as an aqueous suspension at an equivalent water application rate of 300 l/ha.
(§7) The combination of herbicide and safener was applied as a tank mix.
as §5, §6

winter wheat, TRZAW [3] = assay: Method D: safener seed treatment, herbicide and safener tank mix pre-emergence, greenhouse crop damage test; details: no herbicide
Description: as §1, §2, §3, §4
The compounds were sprayed to the soil surface as an aqueous suspension at an equivalent water application rate of 300 l/ha.
as §7, §5, §6

[4] = safener seed treatment 0.5 g/kg only

## CCOC(=O)C1=NN(c2ccc(Cl)cc2Cl)C(C)(C(=O)OCC)C1 (centres unmarked) [Safener seed treatment, ethyl 1-(2,4-dichlorophenyl)-5-(ethoxycarbonyl)-5-methyl-2-pyrazoline-3-carboxylate]
Winter wheat, TRZAW [1]
  % crop damage: 0%
Winter wheat, TRZAW [2]; safener 200 g/ha in tank mix only, post-emergence, 14 days after application
  % crop damage: 5%
Winter wheat, TRZAW [2]; [4]
  % crop damage: 0%
Winter wheat, TRZAW [3]; safener 200 g/ha in tank mix only, pre-emergence, 14 days after application
  % crop damage: 5%
Winter wheat, TRZAW [3]; [4]
  % crop damage: 2%
